In this data set the test system is CCRIS mutagenicity, Ames/micronucleus/aberration tests. In words: CCRIS mutagenicity studies.

Mutagenic call data for four molecules are collected here from PubChem BioAssay AID1259407 (Chemical Carcinogenesis Research Information System (CCRIS), 2018).

Entries after “also recorded” stand apart in the source; their conditions may differ. Calls of active or inactive are those of the source. The rule behind the calls is not given here.

For `Fc1cnc2c(ccc3ncc(F)cc32)c1`, where the note is “Test System: AMES SALMONELLA TYPHIMURIUM, Strain/Indicator: TA100, Metabolic Activation: RAT, LIVER, S-9, PHENOBARBITAL AND 5,6-BENZOFLAVONE, Method: PREINCUBATION”, the mutagenic call was “inactive; negative”.
In the case of `CCN(C)C(=O)Oc1ccc2c(c1)C1(C)CCN(C)C1N2C` (stereo unspecified), the mutagenic call by setting is: (Test System: AMES SALMONELLA TYPHIMURIUM, Strain/Indicator: TA97, Metabolic Activation: NONE, Method: STANDARD PLATE) “inactive; negative”; (Test System: AMES SALMONELLA TYPHIMURIUM, Strain/Indicator: TA97, Metabolic Activation: S-9, Method: STANDARD PLATE) “inactive; negative”; (Test System: AMES SALMONELLA TYPHIMURIUM, Strain/Indicator: TA98, Metabolic Activation: NONE, Method: STANDARD PLATE) “inactive; negative”; (Test System: AMES SALMONELLA TYPHIMURIUM, Strain/Indicator: TA98, Metabolic Activation: S-9, Method: STANDARD PLATE) “inactive; negative”; (Test System: AMES SALMONELLA TYPHIMURIUM, Strain/Indicator: TA100, Metabolic Activation: NONE, Method: STANDARD PLATE) “inactive; negative”; (Test System: AMES SALMONELLA TYPHIMURIUM, Strain/Indicator: TA100, Metabolic Activation: S-9, Method: STANDARD PLATE) “inactive; negative”. The mutagenic call is, setting by setting: (Test System: AMES SALMONELLA TYPHIMURIUM, Strain/Indicator: TA104, Metabolic Activation: NONE, Method: STANDARD PLATE) “inactive; negative”; (Test System: AMES SALMONELLA TYPHIMURIUM, Strain/Indicator: TA104, Metabolic Activation: S-9, Method: STANDARD PLATE) “inactive; negative”; (Test System: AMES SALMONELLA TYPHIMURIUM, Strain/Indicator: TA1535, Metabolic Activation: NONE, Method: STANDARD PLATE) “inactive; negative”; (Test System: AMES SALMONELLA TYPHIMURIUM, Strain/Indicator: TA1535, Metabolic Activation: S-9, Method: STANDARD PLATE) “inactive; negative”; (Test System: AMES SALMONELLA TYPHIMURIUM, Strain/Indicator: TA1537, Metabolic Activation: NONE, Method: STANDARD PLATE) “inactive; negative”; (Test System: AMES SALMONELLA TYPHIMURIUM, Strain/Indicator: TA1537, Metabolic Activation: S-9, Method: STANDARD PLATE) “inactive; negative”. Moreover, the mutagenic call reads like this: (Test System: AMES SALMONELLA TYPHIMURIUM, Strain/Indicator: TA1538, Metabolic Activation: NONE, Method: STANDARD PLATE) “inactive; negative”; (Test System: AMES SALMONELLA TYPHIMURIUM, Strain/Indicator: TA1538, Metabolic Activation: S-9, Method: STANDARD PLATE) “inactive; negative”.
On to `CC(O)CC(C)(C)O` (stereo unspecified), for which the mutagenic call is, setting by setting: (Test System: Ames Salmonella typhimurium, Strain/Indicator: TA98, Metabolic Activation: None, Method: Preincubation) “inactive; negative”; (Test System: Ames Salmonella typhimurium, Strain/Indicator: TA98, Metabolic Activation: Rat, Liver, S9, Sodium phenobarbital and 5,6-benzoflavone (10%), Method: Preincubation) “inactive; negative”; (Test System: Ames Salmonella typhimurium, Strain/Indicator: TA100, Metabolic Activation: None, Method: Preincubation) “inactive; negative”; (Test System: Ames Salmonella typhimurium, Strain/Indicator: TA100, Metabolic Activation: Rat, Liver, S9, Sodium phenobarbital and 5,6-benzoflavone (10%), Method: Preincubation) “inactive; negative”; (Test System: Ames Salmonella typhimurium, Strain/Indicator: TA1535, Metabolic Activation: None, Method: Preincubation) “inactive; negative”; (Test System: Ames Salmonella typhimurium, Strain/Indicator: TA1535, Metabolic Activation: Rat, Liver, S9, Sodium phenobarbital and 5,6-benzoflavone (10%), Method: Preincubation) “inactive; negative”. Besides, the mutagenic call runs as follows: (Test System: Ames Salmonella typhimurium, Strain/Indicator: TA1537, Metabolic Activation: None, Method: Preincubation) “inactive; negative”; (Test System: Ames Salmonella typhimurium, Strain/Indicator: TA1537, Metabolic Activation: Rat, Liver, S9, Sodium phenobarbital and 5,6-benzoflavone (10%), Method: Preincubation) “inactive; negative”; (Test System: E. coli, Strain/Indicator: WP2uvrA/pKM101, Metabolic Activation: None, Method: Preincubation) “inactive; negative”; (Test System: E. coli, Strain/Indicator: WP2uvrA/pKM101, Metabolic Activation: Rat, Liver, S9, Sodium Phenobarbital and 5,6-benzoflavone (10%), Method: Preincubation) “inactive; negative”.
As for `COc1ccc2nc(S(=O)Cc3ncc(C)c(OC)c3C)[nH]c2c1` (stereo unspecified), the mutagenic call is, setting by setting: (End Point: IN VITRO MICRONUCLEUS, Test System: AHH-1 CELLS, Metabolic Activation: NONE) “active; positive”; (End Point: IN VITRO MICRONUCLEUS, Test System: HEPATOCYTES, Species: RAT, Strain/Sex: SPRAGUE-DAWLEY/FEMALE, Metabolic Activation: NONE) “active; positive; at 33 mg dose in 50% of rats”; (End Point: IN VITRO MICRONUCLEUS, Test System: HUMAN LYMPHOCYTES, Metabolic Activation: NONE) “active; positive (in 4/5 donors); also recorded: active; positive; only at 18 ug/ml and 1 of 2 donors”; (End Point: IN VITRO MICRONUCLEUS, Test System: MCL-5 CELLS, Metabolic Activation: NONE) “active; positive”; (End Point: IN VIVO MICRONUCLEUS, Test System: BONE MARROW POLYCHROMATIC ERYTHROCYTES, Species: RAT, Strain/Sex: SPRAGUE-DAWLEY/FEMALE, Route: ORAL) “inactive; negative; some increase but not statistically significant”; (End Point: IN VIVO MICRONUCLEUS, Test System: HEPATOCYTES, Species: RAT, Strain/Sex: SPRAGUE-DAWLEY/FEMALE, Route: ORAL) “active; positive”.
